Source: patent US20250262251A1, “THERARONSTIC APPROACH FOR INFLAMMATORY BOWEL DISEASE-ASSOCIATED SPONDYLOARTHRITIS” (Cornell University, priority 2024, published 2025)

What was measured:
[1] = test system: E. rectale DSM 17629; experiment: E. rectale in vitro culture with sulfapyridine (but expression); type: cell-based, Eubacterium rectale; conditions: SP 1 mM
Protocol: (§1) CFU from F. prausnitzii cultures were assessed anaerobically in YCFA agar. Growth was measured by absorbance, OD600, on SpectraMax Plus (Molecular Devices, San Jose, CA). RNA isolation was performed using RNeasy PowerMicrobiome kit (Qiagen, Hilden, Germany) following the manufacture instructions. RNA was then quantified by Nanodrop prior to reverse transcription with qScript cDNA SuperMix kit (Quantabio, Beverly, MA) or RNAseq library preparation.
(§2) qPCR was performed on an Applied BioSciences Quant Studio 6 Flex Real-time PCR (Applied Biosystems, Waltham, MA) using PerfeCTa SYBR Green Fast mix, Low ROX (Quantabio, Beverly, MA). The following primers were used: for 16S rRNA gene −515F 5′ […] 3′ (SEQ ID NO:1), −926R 5′ […] 3′ (SEQ ID NO:2)^71 F. prausnitzii but gene F: 5′ […] 3′ SEQ ID NO:3), R: 5′ […] 3′ (SEQ ID NO:4) and E. rectale but gene F: 5′ […] 3′, SEQ ID NO:5) R: 5′ […] 3′ (SEQ ID NO:6) (designed on the PrimerQuest Tool from IDT, Coralville, IA). The thermocycler program was as follows: initial cycle of 95° C. for 60 s, followed by 40 PCR cycles at 95° C. for 5 s, 60° C. for 15 s, 72° C. for 15 s. Relative levels of the but target gene was determined by calculating the Δ Ct to the conserved 16S rRNA gene expression.

[2] = test system: F. prausnitzii ATCC 27768; experiment: F. prausnitzii in vitro culture with sulfapyridine (growth, RNA-seq, qPCR, mass spectrometry); type: cell-based, Faecalibacterium prausnitzii
Protocol: (§3) To determine drug fecal levels and its impact on fecal metabolites, fecal samples were treated with cold 80% methanol for 4 hours at 4° C. Samples were then centrifuged at 14,000 g for 20 min at 4° C. Supernatants were transferred to a sterile 1.5 ml tube and stored at-80° C. Bacterial supernatants were treated with 4X volume of the 80% methanol. Polar metabolomic analysis was performed by the WCM Proteomics and Metabolomics Core for target polar metabolomics analysis by LC-MS. Metabolites were identified using an in-house library established using chemical standards. Identification required exact mass (within 5ppm) and standard retention times. To determine short chain fatty acids (SCFAs) fecal levels, target metabolomics were performed using liquid chromatography-quadruple-time of flight mass spectrometry as previously described^62. Relative metabolite quantitation was performed based on peak area for each metabolite evaluated and normalized by sample weight.
as §1
RNA-seq library preparation and sequencing were performed by WCM Genomics Core. For library preparation, the Illumina Stranded Total RNA Prep kit was used. High-throughput sequencing was performed using the PE 2×50 cycles protocol in the NovaSeq 6000 Illumina platform targeting 10 million reads/sample. Bioinformatics and statistical analysis were then performed by the WCM Bioinformatics Core. Samples were aligned with STAR^67 to NCBI reference genome GCF_000154385.1 (F. prausnitzii M21/2). Quality control was performed with QoRTs^68 on aligned BAM files. Counts per gene were then calculated using featureCounts^69. BioCyc^70 analyses were performed with clusterProfiler to identify pathways/gene sets that are overrepresented among the differentially expressed genes.
as §2

[3] = test system: patients with a clinical diagnosis of IBD and ASAS-defined SpA; experiment: Prospective clinical study of SAS therapy in IBD-pSpA subjects (BASDAI, ASDAS, HBI, CRP); type: in vivo, human; parameters: proportion of treated patients who tolerated increase: dose or concentration left out as unconfirmed
Source text: Eligible patients of any gender were between the ages of 18-80 with ulcerative colitis (UC) or Crohn's disease (CD) and ASAS criteria of pSpA defined as the presence of peripheral arthritis, enthesitis or dactylitis^50. Patients with active SpA, defined as ASDAS>1.3 and/or BASDAI≥4, were eligible to participate^51, 52. […] Participants who declined therapy or were intolerant of SAS were followed as standard of care controls. […] All patients provided voluntary informed consent and the study ethics was approved by the Weill Cornell institutional review board (IRB 1504016115).
The primary endpoint of our analysis was clinical response in BASDAI, defined conservatively as a reduction in BASDAI of >2. Secondary endpoints were clinical response in ASDAS and Harvey Bradshaw Index (HBI) for CD defined as reduction in ASDAS of ≥1.1 at week 12 post-study initiation^51 or a decrease in HBI of ≥3^54, respectively. Exploratory analysis included absolute reduction in BASDAI, ASDAS, CRP, and HBI.
To determine significance of […] variables, Student's t test was applied if two groups were compared, otherwise two-way ANOVA test was used. For non-parametric data, Wilcoxon matched-pairs signed-rank test was calculated when paired analyses were carried, otherwise Mann-Whitney test was applied. If required, Bonferroni or Tukey tests were applied for multiple comparison correction. Metagenomic and transcriptomic analyses were performed in R studio (Boston, MA) using R package ‘phyloseq’^66 and plots were constructed in ‘ggplot2’ or GraphPad (San Diego, CA). Differential gene expression analysis was performed with DESeq2^72. Differential taxa or pathway abundance was assessed using linear discriminant analysis (LDA) effect size (LEfSe)^31. Correlation between two continuous variables (e.g. fecal drug levels, Δ BASDAI, alpha diversity) was determined with linear regression models. For discriminating responders from non-responders, we fit linear regression models on the relative abundances of select taxa and constructed corresponding ROC curves. Area under the curve (AUC) and P values were computed using R.

[4] = test system: DSS-induced colitis; experiment: DSS-induced colitis in SPF WT mice; type: in vivo, mouse; conditions: 2% DSS 7 days, SAS 300 mg/kg/day
Protocol: (§4) Gnotobiotic C57BL/6 wild-type (WT) mice were bred and maintained at WCM Gnotobiotic Mouse facility. Specific pathogen free (SPF) C57BL/6 WT mice were ordered from Jackson Laboratory. C57BL/6 Gpr109a^−/− mice were obtained from Marcel van den Brink laboratory and were bred and maintained under SPF conditions at WCM.
(§5) For induction of chemical colitis, 2% dextran sulfate sodium (DSS) (wt/vol) (M.W. 40,000-50,000; Affymetrix, Santa Clara, CA) was added to drinking water and administered ad libitum for 7 days. Mice were then monitored daily for weight loss and survival. Mouse Lipocalin-2 was measured in the cecal content supernatant using sandwich enzyme-linked immunosorbent assay (R&D Systems, Minneapolis, MN).
(§6) All animal experiments were performed with 6-8-week-old WT, Gpr109a^−/− and heterozygous littermate mice. Both female and male mice were used with random and equal assignment of same sex to each experimental group. All animal studies were carried out in accordance with protocols approved by the Institutional Animal Care and Use Committee at WCM.

[5] = test system: gnotobiotic mice colonized with IBD-pSpA donor microbiomes; experiment: Gnotobiotic mice colonized with responder or non-responder microbiomes: fecal butyrate and DSS colitis; type: in vivo, mouse
Protocol: as §4, §5
For gnotobiotic experiments, germ-free (GF) mice were gavaged with 1 g of homogenized patient fecal samples diluted in 10 ml of reduced PBS under anaerobic conditions, as previously described^53. Mice gavaged with ATCC 27768 F. prausnitzii received 1×10^9 colony forming units (CFU) grown under anaerobic conditions at log-phase in Yeast Casitone Fatty Acids Broth with Carbohydrate media (YCFAC, Anaerobe Systems, Morgan Hill, CA).
as §3

[6] = test system: Jackson SPF or germ-free C57BL/6 WT mice; experiment: Fecal short chain fatty acids and 5-ASA in SPF or germ-free mice treated with SAS or BSD; type: in vivo, mouse
Protocol: as §4, §5, §3

[7] = test system: butyrate receptor Gpr109a; experiment: DSS-induced colitis in Gpr109a-deficient and heterozygous mice; type: in vivo, mouse
Protocol: as §4, §5, §6

[8] = test system: fecal samples of IBD-pSpA subjects; experiment: Fecal metabolomics of IBD-pSpA subjects treated with SAS; type: in vivo, human; conditions: responders
Protocol: as §3

[9] = RNA-seq, SP 1 mM vs NaOH vehicle
[10] = SPF WT mice, 300 mg/kg/day, day 14

Nc1ccc(S(=O)(=O)Nc2ccccn2)cc1 [SP, sulfapyridine]
expression of but in E. rectale [1]: did not change
effect of dose on F. prausnitzii growth ([2]; 1 mM, anaerobic culture): sub-inhibitory
folT (folate ECF transporter S component FolT) expression ([2]; RNA-seq, SP 1 mM): upregulation
acetate kinase (ackA) expression [2, 9]: downregulation
but expression [2, 9]: concomitant increase
phosphate acetyltransferase (pta) expression [2, 9]: downregulation
thymidine kinase expression ([2]; bacterial cultures with SP): significant increase
thymine metabolites ([2]; bacterial cultures with SP): corresponding decrease
butyrate production ([2]; mass spectrometry after 22 and 46 hours of culture, both timepoints): robustly increased
induction of but in response to SP on supplementation with folate ([2]; qPCR, SP plus folate 566 μM): abrogated

O=C(O)c1cc(/N=N/c2ccc(S(=O)(=O)Nc3ccccn3)cc2)ccc1O [SAS, sulfasalazine]
proportion of treated patients who tolerated increase ([3]; 22 patients treated with SAS, n=11): 50%
absolute score reduction in BASDAI compared to controls ([3]; baseline to week 12): significant absolute score reduction
difference in CRP alone compared to controls ([3]; baseline to week 12): no difference
reduction in all joint disease activity scores, 2 mg versus 4 mg daily ([3]; comparison between SAS doses): equivalent reduction
impact of baseline biologic or mesalamine therapy on change in disease activity scores following SAS treatment ([3]; human, in vivo): did not impact
proportion with clinical improvement using ASDAS ([3]; week 12, controls 0%, P=.07): 28.6%
proportion of patients achieving clinical response in joint symptoms (reduction in BASDAI of >2) ([3]; week 12, controls 9.1%, P=.04): 45.4%
cecal lipocalin compared to control treated mice [4]: reduced
mortality compared to control treated mice [4]: significantly reduced
weight loss compared to control treated mice [4]: attenuated
abundance of fecal butyrate following SAS treatment ([5]; mice colonized with non-responder microbiome): not changed
abundance of fecal butyrate following SAS treatment ([5]; mice colonized with responder microbiomes): higher abundance
weight loss ([5]; non-responder microbiomes, DSS): not responsive
intestinal inflammation measured by lipocalin ([5]; responder microbiomes, DSS): reduced
weight loss ([5]; responder microbiomes, DSS): reduced
fecal butyrate levels post-treatment ([6]; GF mice): no changes
fecal acetate [6, 10]: no significant change
fecal butyrate levels compared to H2O vehicle controls [6, 10]: significant increase
fecal propionate [6, 10]: no significant change
inflammation measured by lipocalin ([7]; mice deficient for Gpr109a): no effect
survival ([7]; mice deficient for Gpr109a): no effect
weight loss ([7]; mice deficient for Gpr109a): no effect
intestinal inflammation measured by cecal lipocalin ([7]; mice heterozygous for Gpr109a): decreased intestinal inflammation
survival ([7]; mice heterozygous for Gpr109a): significantly improved
weight loss ([7]; mice heterozygous for Gpr109a): reduced weight loss
thymine fecal abundance after SAS treatment ([8]; P=.016): significantly reduced
fecal deoxyuridine levels after SAS treatment ([8]; P=.05): concomitant increase

O=C(O)CCNC(=O)c1ccc(/N=N/c2ccc(O)c(C(=O)O)c2)cc1 [BSD, balsalazide]
fecal butyrate levels compared to H2O vehicle controls [6, 10]: numerically higher
conversion of prodrug by the mouse gut microbiome (5-ASA detection in fecal samples) ([6]; SPF mice, day 7 post-treatment initiation): efficiently converted
